Test results reported in patent publication US8957140B2, “Triazine derivative, ultraviolet absorber, and resin composition” (FUJIFILM Corporation, priority 2009, dated 2015).

Assay: Light resistance of PMMA polymer film (residual amount after metal halide lamp irradiation)
Type: physicochemical
Settings: 0.2 mass % compound in PMMA film, 50-μm thick; metal halide lamp (about 290 nm or less cut), 90 mW/cm^2, 63° C., humidity 50%, irradiation for 600 hours; absorbance at maximum absorption wavelength
Protocol: A binder solution was prepared by dissolving 22 mass % of a PMMA resin (“DIANAL BR-80”, trade name, produced by Mitsubishi Rayon Co., Ltd.) in methylene chloride. […] The coating solution was applied on glass as a base material by means of a 200 μm blade and dried at 100° C. for 10 minutes to form a 50-μm thick coating, whereby a film was produced. […] The residual amount was calculated according to the following formula: Residual amount (%)=100×(absorbance after irradiation)/(absorbance before irradiation)
Incidentally, the absorbance is a value measured at the maximum absorption wavelength of each compound.

Structure (SMILES)	Residual Amount (%)
CCCCCCCCOc1ccc(-c2nc(-c3ccc(C)cc3C)nc(-c3ccc(C)cc3C)n2)c(O)c1 [Comparative Compound B]	14
CCCCCCOc1ccc(-c2nc(-c3ccccc3)nc(-c3ccccc3)n2)c(O)c1 [Comparative Compound A]	44
